Source: US6274568A, “Compounds for altering cell surface sialic acids and methods of use therefor” (priority 1999, dated 2001)
“Also recorded” adds a separate entry of the source.

Key:
NG108-15 cells [1] = experiment: Uptake of mannosamine precursors and conversion to sialic acids (precursor pool, gangliosides, glycoproteins) in NG108-15 cells, HPLC; assay type: cell-based, mouse neuroblastoma/rat glioma hybrid; details: for ganglioside (lipid) sialic acid in the NeuGc form: NG108-15, 20 mM precursor (FIG. 3)
Procedure: (§1) Cells were harvested using hypertonic Ca^2+ - and Mg^2+ -free phosphate-buffered saline containing 1 mM EDTA, collected by centrifugation, and homogenized in ice-cold water using a Potter-Elvehjem glass/Teflon homogenizer. Methanol (2.6 volumes) was added, the suspension mixed and brought to ambient temperature, then chloroform (1.3 volumes, based on the original homogenate) was added and the suspension mixed vigorously. The suspension was centrifuged 30 min at 2,000×g. After collecting the supernatant, the pellet (containing precipitated proteins) was resuspended in water or concentrated ammonium hydroxide and a portion was used for protein assay (BCA, Pierce, Rockford, Ill.). The supernatant was partitioned by adjusting the chloroform-methanol-water ratio to 4:8:5.6 by addition of water, mixing thoroughly, and centrifuging as above. The upper phase was collected and a portion was subjected to reverse phase chromatography, using Sep-Pak C18 cartridges (Waters, Milford, Mass.), to isolate gangliosides (Schnaar, Methods Enzymol. 230:371, 1994).
(§2) To quantify and identify sialic acids, a portion of resolublized protein, organic/aqueous soluble pool, or reverse-phase purified gangliosides was evaporated to dryness in a 500-μl polypropylene tube and 20 μl of 0.1 M HCl/0.25 M NaCl was added. One Ampliwax bead (Perkin Elmer Corp, Foster City, Calif.) per reaction was added to block evaporation, and the sample hydrolyzed for 3 h at 80° C. Released sialic acids were analyzed by injecting an aliquot (1-10 μl) onto a Dionex high pressure liquid chromatography system (Dionex Corporation, Sunnyvale, Calif.) using a HPIC-AS6 column and a pulsed amperometric detector. Elution solutions were: A, 0.75 mM NaOH; B, 200 mM NaOH; and C, 400 mM sodium acetate in 50 mM NaOH. NeuAc and NeuPr were resolved by elution with 40% A, 50% B, 10% C for 15 min at 1 ml/min. NeuGc was resolved in separate injections using step gradient elution: 0-1.8 min, 18% A, 50% B, 32% C; 2-10 min, 40% B, 60% C. Sialic acids were identified by comparison of their elution time with those of standard NeuAc, NeuPr and NeuGc and were quantified in comparison to a standard curve of commercial NeuAc (for NeuAc and NeuPr) or NeuGc.
(§3) To confirm that the quantified peaks represented sialic acids, 10 μl of acid hydrolysates were treated with 1 μl of 1 M sodium phosphate (pH 7.2) and 10 μl of 0.1 M NaOH. Neutralized samples were incubated at 37° C. for 2 h with or without 0.9 U of N-acetylneuraminic acid aldolase (Sigma), 32 μM NADH and 0.1 μg lactate dehydrogenase. Sialic acid content in the ganglioside and glycoprotein fractions is expressed per mg of total cell protein. Precursor pool sialic acid (sialic acid plus CMP-sialic acid) was calculated by subtracting the ganglioside value from the organic/aqueous pool value, both expressed per mg of cell protein.
Sialic acid is biosynthesized from the precursor sugar N-acetylmannosamine (FIG. 2). In the present invention, sialic acids are converted on live neuronal cells from NeuAc, which is a key determinant for MAG binding, to NeuGc, which is non-permissive for MAG binding. A potential NeuGc precursor, N-glycolylmannosamine monoacetate (ManNGcMA, FIG. 1, R1 =H) was tested for its ability to generate altered sialic acids in neuronal and non-neuronal cells. N-propanoylmannosamine (ManNPr) and other N-acyl mannosamine derivatives have been used to modify glycoprotein associated sialic acids to the corresponding N-acylneuraminic acid. N-propanoyl-mannosamine (ManNPr), was used as a positive control. […] Cell pellets were fractioned into lipid associated, protein associated, and intracellular (lipid and cytoplasmic which may consist of oligosaccharide-bound, free, or CMP-activated sialic acid) sialic acids and hydrolyzed to release sialic acid. The hydrolyzed samples were then analyzed by HPLC to determine sialic acid content. […]

Jurkat cells = experiment: Uptake of mannosamine precursors and conversion to sialic acids in Jurkat cells, HPLC; assay type: cell-based, human; details: 48 h
Procedure: as §1, §2, §3
Sialic acid is biosynthesized from the precursor sugar N-acetylmannosamine (FIG. 2). In the present invention, sialic acids are converted on live neuronal cells from NeuAc, which is a key determinant for MAG binding, to NeuGc, which is non-permissive for MAG binding. A potential NeuGc precursor, N-glycolylmannosamine monoacetate (ManNGcMA, FIG. 1, R1 =H) was tested for its ability to generate altered sialic acids in neuronal and non-neuronal cells. N-propanoylmannosamine (ManNPr) and other N-acyl mannosamine derivatives have been used to modify glycoprotein associated sialic acids to the corresponding N-acylneuraminic acid. N-propanoyl-mannosamine (ManNPr), was used as a positive control. Jurkat human lymphoma cells and NG108-15 cells (rodent neuroblastoma/glioma hybrid cells) were incubated in 20 mM synthetic precursor or control precursor (N-acetylmannosamine, ManNAc) for 48 h, then harvested. Cell pellets were fractioned into lipid associated, protein associated, and intracellular (lipid and cytoplasmic which may consist of oligosaccharide-bound, free, or CMP-activated sialic acid) sialic acids and hydrolyzed to release sialic acid. […]

MAG-Fc chimera = experiment: MAG-Fc binding to precursor-treated NG108-15 cells by flow cytometry; assay type: cell-based
Procedure: Flow cytometry was used to test binding of a soluble MAG-Fc chimera to precursor-treated and control NG108-15 cells. A chimeric protein consisting of the entire extracellular domain of MAG fused via a three amino acid bridge (TGK) to the human Fc domain was produced using the "pIgPlus" vector (Novagen, Madison, Wis.). A PCR fragment coding for the extracellular domain of MAG was prepared using MAG in pCDM8 as template (Yang et al., 1996a), the T7 5' primer […] (SEQ ID NO:1) and […] (SEQ ID NO:2) as the 3' primer. The fragment was cut with BamHI and HindIII and directionally cloned into the pIgPlus vector. The resulting construct was sequenced to confirm its identity, transfected into COS cells, and the resulting MAG-Fc chimera was purified from the culture medium using Protein G affinity chromatography.
For MAG binding studies, NG108-15 cells were cultured in the presence of sialic acid precursors for the indicated times, then were released from culture dishes using hypertonic Ca^2+ /Mg^2+ -free phosphate-buffered saline (Yang et al., Proc. Natl. Acad. Sci. USA., 93:814, 1996) and resuspended (at […]) in 25 mM Hepes-buffered Hanks balanced salt solution (Bashor, Methods Enzymol., 58:119, 1979) containing 5 mg/ml bovine serum albumin. MAG-Fc (6 μg) was added to 100 μl of the same buffer containing 6 μg fluorescein isothiocyanate-labeled goat anti-human Fc (Jackson Immunoresearch, West Grove, Pa.) and incubated on ice for 1 h 45 min with frequent mixing. Cell suspension (100 μl containing 50,000 cells) was added to the premixed antibody solution and the mixture incubated on ice for 45 min. The cells were then centrifuged for 4 sec at 16,000×g and washed three times by resuspension in 200 μl of buffer with bovine serum albumin and centrifugation. The resulting cell pellet was resuspended in 100 μl buffer with bovine serum albumin and flow cytometry was performed on an Epics Profile II cytometer (Coulter Corp, Hialeah, Fla.).
NG108-15 cells, a mouse neuroblastoma/rat glioma hybrid, display many qualities of cholinergic neurons, including neurite outgrowth, synthesis, storage and release of acetylcholine, and functional synapse formation with muscle cells in vitro. Neurite outgrowth from NG108-15 cells is inhibited by MAG (McKerracher et al., Neuron, 13:805, 1994), an interaction which is reversed by pretreatment of the cells with neuraminidase (Schnaar et al., Ann. N.Y. Acad. Sci., 845:92, 1998). […] Binding was quantified by flow cytometry. […]

[2] = system: myelin-associated glycoprotein (MAG); details: cited from earlier work
NG108-15 cells [3] = experiment: Cell growth and viability of precursor-treated NG108-15 cells; details: 1 mM
Procedure: Cell growth rates were determined in control cultures (.box-solid.), in cultures treated with 0.08 mM (.circle-solid.), 0.25 mM (.smallcircle.), or 1 mM (.quadrature.) ManNGcPA, and in cultures treated with 0.25 mM (.tangle-solidup.) or 1 mM (Δ) glucose pentaacetate.
NG108-15 cells were maintained in Dulbecco's modified Eagle's medium (high glucose formulation) containing 5% iron-enriched calf serum, 100 μM hypoxanthine, 16 μM thymidine, and 5 μM aminopterin. […] Both cell types were cultured at 37° C. in a humidified atmosphere of 90% air/10% CO2. For treatment with sialic acid precursors, mannosamine derivatives were diluted into the appropriate medium and filter sterilized. […] In experiments testing ManNGcPA, all cells (control and experimental) were grown in the presence of 0.5% (v/v) DMSO, the carrier for ManNGcPA.

[4] = NG108-15, 20 mM precursor, 48 h

## CC(=O)N[C@@H]1C(O)O[C@H](CO)[C@@H](O)[C@@H]1O (stereo partly drawn) [ManNAc, N-acetylmannosamine, reference compound]
NG108-15 cells [1]; 20 mM precursor, 48 h
  increase in intracellular sialic acid (precursor pool): ≤ 14 fold
  increase in total glycoprotein sialic acid: ≈ 2 fold
NG108-15 cells [1]; [4]
  levels of intracellular sialic acid: high levels
Jurkat cells; 20 mM precursor
  levels of intracellular sialic acid: high levels

## CC(=O)N[C@@H]1C(OC(C)=O)O[C@H](COC(C)=O)[C@@H](OC(C)=O)[C@@H]1OC(C)=O (stereo partly drawn) [ManNAc-tetraacetate, ManNAc tetra-O-acetate, reference compound]
MAG-Fc chimera; 1 mM, 96 h
  effect on MAG-Fc binding: no significant effect on binding

## CC(=O)OC[C@H]1OC(OC(C)=O)[C@@H](NC=O)[C@@H](OC(C)=O)[C@@H]1OC(C)=O (stereo partly drawn) [ManNFr-OAc, N-formylmannosaminne peracetate]
NG108-15 cells [1]; 48 hours
  glycolipid associated sialic acid as NeuFr: 10%
NG108-15 cells [1]; FIG. 13
  levels of intracellular sialic acid in the form of NeuFr: elevated levels of intracellular sialic acid in the form of N-formyneuraminic acid

## O=C(CO)N[C@@H]1C(O)O[C@H](CO)[C@@H](O)[C@@H]1O (stereo partly drawn) [ManNGc, N-glycolylmannosamine]
NG108-15 cells [1]; 5 mM
  levels of NeuGc in any of the fractions analyzed: did not result in substantial levels of NeuGc
NG108-15 cells [1]; 5 mM in the presence of DMSO, 48 h
  levels of NeuGc (elevation): did not result in elevated levels of NeuGc
NG108-15 cells [1]; 5 mM, 48 h
  intracellular sialic acid in the form of NeuGc: 13.6%
  protein associated sialic acid as NeuGc: 9.5%
NG108-15 cells [1]; 5.0 mM, 48 h
  total lipid associated sialic acid as NeuGc: 5%
NG108-15 cells [1]; 48 h
  ganglioside (lipid) sialic acid in the NeuGc form: ~70%
NG108-15 cells [1]; NG108-15 compared with Jurkat, 48 h
  intracellular NeuGc: substantially lower levels
NG108-15 cells [1]; in MAG recognition experiment
  glycoconjugate sialic acid in the form of NeuGc: 60%
Jurkat cells
  intracellular NeuGc: expected rise in intracellular NeuGc
  lipid sialic acid in the form of NeuGc: Approximately 50%
  protein sialic acid in the form of NeuGc: Approximately 50%
MAG-Fc chimera; ng108-15 cells
  decrease in MAG-mediated recognition: 60%

## CC(=O)OCC(=O)N[C@@H]1C(O)O[C@H](CO)[C@@H](O)[C@@H]1O (stereo partly drawn) [ManNGcMA, N-Glycolylmannosamine monoacetate]
NG108-15 cells [1]; 5 mM, 48 h
  incorporation of NeuGc into gangliosides, relative to 1 mM ManNGcPA: much less
  incorporation of NeuGc into glycoproteins, relative to 1 mM ManNGcPA: much less
NG108-15 cells [1]; 20 mM precursor, 48 h
  conversion of glycoprotein sialic acids to the NeuGc form: ≈ 30%
  decrease in total glycoprotein sialic acid: ≈ 40%
  sialic acid precursor pool in the NeuGc form: ≈ 70%
  sialic acid precursor pool size compared to untreated control: markedly smaller sialic acid precursor pool
NG108-15 cells [1]; 0.1 or 1.0 mM ManNGcPA, or 5 mM ManNGcMA, 48 h
  sialic acid precursor pool size: none of these treatments significantly altered the sialic acid precursor pool size
NG108-15 cells [1]; 48 h
  ganglioside (lipid) sialic acid in the NeuGc form: ≈ 30%
NG108-15 cells [1]; [4]
  size of the ganglioside pool: remained relatively constant
Jurkat cells; 20 mM precursor
  sialic acid precursor pool as NeuGc: nearly all NeuGc
  total sialic acid precursor pool size: increase in total sialic acid precursor pool size (comparable to treatment with ManNPr)

## O=C(CO)N[C@H]1[C@H]([C@H](O)[C@H](O)CO)OC(O)(C(=O)O)C[C@@H]1O (stereo partly drawn) [NeuGc, N-glycolylneuraminic acid]
[2]
  support of MAG binding / recognition: but not N-glycolylneuraminic acid (NeuGc) support MAG binding; also recorded: does not support MAG binding

## glucose pentaacetate
NG108-15 cells [3]
  cell growth: more profound decreases in cell growth and viability than the ManNGcPA-treated cells
  cell viability (in words): more profound decreases in cell growth and viability than the ManNGcPA-treated cells
